Data as given in ChEMBL document CHEMBL1150588, “New nitrogenous eudesmane-type compounds isolated from the Caribbean sponge Axinyssa ambrosia” (J Nat Prod, 2002).

Assays:
Madracis mirabilis [1] = experiment: Toxicity against Madracis mirabilis assessed as retracted polyps at 10 ug/ml after 24 hrs; conditions: in vivo
Madracis mirabilis [2] = experiment: Toxicity against Madracis mirabilis assessed as retraction recovery at 10 ug/ml after 48 hrs; conditions: in vivo
P388 = experiment: Cytotoxicity against mouse P388 cells; format: functional, cell-based
A549 = experiment: Cytotoxicity against human A549 cells; format: functional, cell-based
HT-29 = experiment: Cytotoxicity against human HT-29 cells; format: functional, cell-based
[3] = Toxicity against Madracis mirabilis polyps assessed as mortality after 2 hrs; format: organism-based; conditions: in vivo; read-out: LD50
Madracis mirabilis [4] = experiment: Toxicity against Madracis mirabilis polyps assessed as mortality at 10 ug/ml after 2 hrs; conditions: in vivo
Madracis mirabilis [5] = experiment: Toxicity against Madracis mirabilis polyps assessed as mortality at 7.75 ug/ml after 2 hrs; conditions: in vivo

In the case of C=C(C)[C@H]1CC[C@@]2(C)CCC[C@@](C)(N)[C@@H]2C1 (relative stereo), the Activity (Madracis mirabilis [1]) is reported as “Active” and the Activity (Madracis mirabilis [2]) is reported as 40%.
Molecule C=C(C)[C@H]1CC[C@@]2(C)CCC[C@@](C)(N)[C@@H]2C1.Cl (relative stereo) has an IC50 (P388) of 2 µg/mL, an IC50 (A549) of 2 µg/mL and an IC50 (HT-29) of 2 µg/mL. The LC50 at 2 h [3] was 9.4 µg/mL, the Activity (Madracis mirabilis [4]) was “Toxic” and the Activity (Madracis mirabilis [5]) was “Non-toxic”.
